From publication PMC6151383 (Molecules : A Journal of Synthetic Chemistry and Natural …, 2017)
Converted amounts (≈) assume the structure as drawn. Read-outs that look alike come from different tables or passages of the source.

Tests used:
[1] = tested on: Staphylococcus aureus CCM 4516/08; test: Antibacterial microdilution broth MIC, S. aureus; assay type: cell-based; settings: Staphylococcus aureus, CCM4516; 48 h incubation; read-out: MIC SA 48 h
[2] = tested on: Staphylococcus epidermidis H 6966/08; test: Antibacterial microdilution broth MIC, S. epidermidis; assay type: cell-based; settings: Staphylococcus epidermidis, H6966/08; 48 h incubation; read-out: MIC SE 48 h
[3] = tested on: Enterococcus faecalis J 14365/08; test: Antibacterial microdilution broth MIC, E. faecalis; assay type: cell-based; settings: Enterococcus faecalis, J14365/08; 48 h incubation; read-out: MIC EF 48 h
[4] = tested on: Escherichia coli CCM 4517; test: Antibacterial microdilution broth MIC, E. coli; assay type: cell-based; settings: Escherichia coli, CCM4517; 48 h incubation; read-out: MIC EC 48 h
[5] = tested on: Pseudomonas aeruginosa CCM 1961; test: Antibacterial microdilution broth MIC, P. aeruginosa; assay type: cell-based; settings: Pseudomonas aeruginosa, CCM1961; 48 h incubation; read-out: MIC PA 48 h
[6] = tested on: Mycobacterium tuberculosis 331/88 (H37Rv); test: In vitro antimycobacterial MIC, M. tuberculosis; assay type: cell-based
[7] = tested on: Mycobacterium avium 330/88; test: In vitro antimycobacterial MIC, M. avium; assay type: cell-based
[8] = tested on: Mycobacterium kansasii 235/80; test: In vitro antimycobacterial MIC, M. kansasii 235/80; assay type: cell-based
M. kansasii 6509/96 = test: In vitro antimycobacterial MIC, M. kansasii clinical isolate; assay type: cell-based; settings: Mycobacterium kansasii
[9] = tested on: Candida albicans ATCC 44859; test: Antifungal microdilution broth MIC, C. albicans; assay type: cell-based
Candida tropicalis 156 = test: Antifungal microdilution broth MIC, C. tropicalis; assay type: cell-based
Candida krusei E28 = test: Antifungal microdilution broth MIC, C. krusei; assay type: cell-based; settings: Pichia kudriavzevii, E28; 48 h incubation; read-out: MIC CK 48 h
Candida glabrata 20/I = test: Antifungal microdilution broth MIC, C. glabrata; assay type: cell-based; settings: Nakaseomyces glabratus
Trichosporon asahii 1188 = test: Antifungal microdilution broth MIC, T. asahii; assay type: cell-based
[10] = tested on: Aspergillus fumigatus 231; test: Antifungal microdilution broth MIC, A. fumigatus; assay type: cell-based
[11] = tested on: Lichtheimia corymbifera 272; test: Antifungal microdilution broth MIC, L. corymbifera; assay type: cell-based; settings: Lichtheimia corymbifera, 272; 48 h incubation; read-out: MIC LC 48 h
[12] = tested on: Trichophyton interdigitale 445; test: Antifungal microdilution broth MIC, T. interdigitale; assay type: cell-based; settings: Trichophyton interdigitale; for MIC: 445
[13] = tested on: Klebsiella pneumoniae D 11750/08
[14] = tested on: ESBL-positive Klebsiella pneumoniae J 14368/08
Candida sp. = test: Selectivity index for Candida sp. (IC50 HepG2/MIC); assay type: cell-based; settings: all Candida species
[15] = 336 h, 14 d incubation, read-out: MIC Mtb. 331/88 14 d
[16] = 504 h, 21 d incubation, read-out: MIC Mtb. 331/88 21 d
[17] = 330/88, 336 h, 14 d incubation, read-out: MIC M. avium 330/88 14 d
[18] = 330/88, 504 h, 21 d incubation, read-out: MIC M. avium 330/88 21 d
[19] = 235/80, 168 h, 7 d incubation, read-out: MIC M. kansasii 235/80 7 d
[20] = 235/80, 336 h, 14 d incubation, read-out: MIC M. kansasii 235/80 14 d
[21] = 235/80, 504 h, 21 d incubation, read-out: MIC M. kansasii 235/80 21 d
[22] = 6509/96, 168 h, 7 d incubation, read-out: MIC M. kansasii 6509/96 7 d
[23] = 6509/96, 336 h, 14 d incubation, read-out: MIC M. kansasii 6509/96 14 d
[24] = 6509/96, 504 h, 21 d incubation, read-out: MIC M. kansasii 6509/96 21 d
[25] = 72 h incubation, read-out: MIC TI 72 h
[26] = 120 h incubation, read-out: MIC TI 120 h

Row | SMILES | MIC [1] | MIC [2] | MIC [3] | MIC [4] | MIC [5] | MIC [6, 15] | MIC [6, 16] | MIC [7, 17] | MIC [7, 18] | MIC [8, 19] | MIC [8, 20] | MIC [8, 21] | MIC (M. kansasii 6509/96; [22]) | MIC (M. kansasii 6509/96; [23]) | MIC (M. kansasii 6509/96; [24]) | MIC (Candida krusei E28) | MIC KP 24 h [13] | MIC KP 48 h [13] | MIC KP-E 24 h [14] | MIC KP-E 48 h [14] | also measured
1 | O=S(=O)(Nc1ncccn1)c1ccc(N=Cc2cccc(Cl)c2O)cc1 [Compound 2l, 4-[(3-Chloro-2-hydroxybenzylidene)amino]-N-(pyrimidin-2-yl)benzenesulfonamide] | > 500 µM | > 500 µM | > 500 µM | > 500 µM | > 500 µM | 32 µM (≈ 12.4 µg/mL) | 62.5 µM (≈ 24.3 µg/mL) | 125 µM (≈ 48.6 µg/mL) | 250 µM (≈ 97.2 µg/mL) | 16 µM (≈ 6.22 µg/mL) | 32 µM (≈ 12.4 µg/mL) | 62.5 µM (≈ 24.3 µg/mL) | 16 µM (≈ 6.22 µg/mL) | 16 µM (≈ 6.22 µg/mL) | 32 µM (≈ 12.4 µg/mL) | 250 µM (≈ 97.2 µg/mL) | >500 µM | >500 µM | >500 µM | >500 µM | MIC ([9]; ATCC44859, 24 h, read-out: MIC CA 24 h): 62.5 µM (≈ 24.3 µg/mL); MIC ([9]; ATCC44859, 48 h, read-out: MIC CA 48 h): 62.5 µM (≈ 24.3 µg/mL); MIC (Candida tropicalis 156; Candida tropicalis, 156, 24 h, read-out: MIC CT 24 h): 125 µM (≈ 48.6 µg/mL); MIC (Candida tropicalis 156; Candida tropicalis, 156, 48 h, read-out: MIC CT 48 h): 125 µM (≈ 48.6 µg/mL); MIC (Candida glabrata 20/I; 24 h, read-out: MIC CG 24 h): 125 µM (≈ 48.6 µg/mL); MIC (Candida glabrata 20/I; 48 h, read-out: MIC CG 48 h): 125 µM (≈ 48.6 µg/mL); MIC (Trichosporon asahii 1188; Trichosporon asahii, 1188, 24 h, read-out: MIC TA 24 h): 125 µM (≈ 48.6 µg/mL); MIC (Trichosporon asahii 1188; Trichosporon asahii, 1188, 48 h, read-out: MIC TA 48 h): 125 µM (≈ 48.6 µg/mL); MIC ([10]; Aspergillus fumigatus, 231, 48 h incubation, read-out: MIC AF 48 h): 250 µM (≈ 97.2 µg/mL); MIC [11]: > 500 µM; MIC [12, 25]: 31.2 µM (≈ 12.2 µg/mL); MIC [12, 26]: 31.2 µM (≈ 12.2 µg/mL)
2 | O=S(=O)(Nc1ncccn1)c1ccc(N=Cc2cc(Cl)cc(I)c2O)cc1 [Compound 2o, 4-[(5-Chloro-2-hydroxy-3-iodobenzylidene)amino]-N-(pyrimidin-2-yl)benzenesulfonamide] | 15.6 µM (≈ 8.04 µg/mL) | 31.2 µM (≈ 16.1 µg/mL) | 250 µM (≈ 129 µg/mL) | 250 µM (≈ 129 µg/mL) | 500 µM (≈ 257 µg/mL) | 125 µM (≈ 64.3 µg/mL) | 125 µM (≈ 64.3 µg/mL) | 500 µM (≈ 257 µg/mL) | 500 µM (≈ 257 µg/mL) | 125 µM (≈ 64.3 µg/mL) | 250 µM (≈ 129 µg/mL) | 250 µM (≈ 129 µg/mL) | 62.5 µM (≈ 32.2 µg/mL) | 125 µM (≈ 64.3 µg/mL) | 125 µM (≈ 64.3 µg/mL) | 7.81 µM (≈ 4.02 µg/mL) | 500 µM (≈ 257 µg/mL) | 500 µM (≈ 257 µg/mL) | 500 µM (≈ 257 µg/mL) | 500 µM (≈ 257 µg/mL) | MIC ([9]; ATCC44859, 48 h incubation, read-out: MIC CA 48 h): 7.81 µM (≈ 4.02 µg/mL); MIC (Candida tropicalis 156; Candida tropicalis, 156, 48 h incubation, read-out: MIC CT 48 h): 7.81 µM (≈ 4.02 µg/mL); MIC (Candida glabrata 20/I; 48 h incubation, read-out: MIC CG 48 h): 7.81 µM (≈ 4.02 µg/mL); MIC (Trichosporon asahii 1188; Trichosporon asahii, 1188, 48 h incubation, read-out: MIC TA 48 h): 7.81 µM (≈ 4.02 µg/mL); MIC ([10]; Aspergillus fumigatus, 231, 24 h, read-out: MIC AF 24 h): 62.5 µM (≈ 32.2 µg/mL); MIC ([10]; Aspergillus fumigatus, 231, 48 h, read-out: MIC AF 48 h): 62.5 µM (≈ 32.2 µg/mL); MIC [11]: 250 µM (≈ 129 µg/mL); MIC [12, 25]: 1.95 µM (≈ 1 µg/mL); MIC [12, 26]: 1.95 µM (≈ 1 µg/mL)
3 | Nc1ccc(S(=O)(=O)Nc2ncccn2)cc1 [SDZ 1, sulfadiazine, reference compound] | > 500 µM | > 500 µM | > 500 µM | > 500 µM | > 500 µM | 32 µM (≈ 8.01 µg/mL) | 62.5 µM (≈ 15.6 µg/mL) | 62.5 µM (≈ 15.6 µg/mL) | 62.5 µM (≈ 15.6 µg/mL) | 16 µM (≈ 4 µg/mL) | 16 µM (≈ 4 µg/mL) | 32 µM (≈ 8.01 µg/mL) | 8 µM (≈ 2 µg/mL) | 8 µM (≈ 2 µg/mL) | 8 µM (≈ 2 µg/mL) |  | >500 µM | >500 µM | >500 µM | >500 µM | SI for TI ([12]; SI = IC50 (HepG2)/MIC): inactive; SI for Candida sp. (Candida sp.): inactive
